This test has as its target T1, human Werner helicase (WRN-BV08, Uniprot Q14191, amino acids 517-1235 with L1074F point mutation) (Homo sapiens, UniProt Q14191, L1074F).
T1 construct: Uniprot Q14191, amino acids 517-1235 with L1074F point mutation; TEV-cleavable 8×His (C, cleaved yes); made in house; host or cells: Sf9 insect cells (baculovirus)
The test can be described thus: WRN (BV08) ADP-Glo Assay. In kind it is biochemical. The conditions noted are these: 0.15 nM WRN, 5 μM ATP, 0.1 nM DNA duplex, 15 min preincubation, 60 min at 25° C., pH 7.5, 1% DMSO; read-out: ADP-Glo_hWRN_IC50. An outline of the steps:
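Helicase ATPase activity is measured at 25 °C over 60 min using 0.15 nM enzyme, 5 μM ATP and 0.1 nM DNA duplex, final DMSO 1%. ADP production is detected by luminescence, with IC50 derived by curve fitting.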
For orientation: ADP-Glo turns the ADP formed in a reaction into a luminescent signal.
T1 sequence (Q14191 with tags, fused parts or gaps L1074F limits assumed): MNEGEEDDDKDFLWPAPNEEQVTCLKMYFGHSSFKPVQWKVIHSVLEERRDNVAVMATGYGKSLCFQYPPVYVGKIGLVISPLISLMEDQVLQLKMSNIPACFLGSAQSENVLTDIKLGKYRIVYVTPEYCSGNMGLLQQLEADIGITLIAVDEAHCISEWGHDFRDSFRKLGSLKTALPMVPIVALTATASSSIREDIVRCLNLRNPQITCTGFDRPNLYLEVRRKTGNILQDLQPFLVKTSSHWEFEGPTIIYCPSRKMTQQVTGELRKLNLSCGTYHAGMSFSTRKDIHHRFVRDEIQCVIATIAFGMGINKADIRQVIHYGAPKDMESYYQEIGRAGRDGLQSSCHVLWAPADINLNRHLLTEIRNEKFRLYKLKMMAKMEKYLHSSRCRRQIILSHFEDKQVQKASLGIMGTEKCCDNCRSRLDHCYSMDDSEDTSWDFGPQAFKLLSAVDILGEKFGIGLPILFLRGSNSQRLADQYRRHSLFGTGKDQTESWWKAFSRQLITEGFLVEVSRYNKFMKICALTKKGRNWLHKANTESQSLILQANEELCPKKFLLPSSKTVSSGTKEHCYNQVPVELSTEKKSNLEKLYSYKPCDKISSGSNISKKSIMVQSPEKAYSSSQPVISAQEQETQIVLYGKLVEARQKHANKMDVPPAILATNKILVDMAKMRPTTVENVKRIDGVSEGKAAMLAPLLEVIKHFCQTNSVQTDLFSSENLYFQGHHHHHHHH
For the molecule `O=C(Cc1ccc(-n2cccc2)cc1)N(Cc1ccnc(Cl)c1)C1C=CS(=O)(=O)C1` (stereo not shown) [I-160, N-[(2-chloropyridin-4-yl)methyl]-N-(1,1-dioxo-2,3-dihydro-1lambda6-thiophen-3-yl)-2-[4-(1H-pyrrol-1-yl)phenyl]acetamide], the IC50 is 0.5 to 5 µM. For `O=C(Cc1ccc(-n2cccc2)cc1F)N(Cc1ccncc1)C1C=CS(=O)(=O)C1` (stereo not shown) [I-161, N-(1,1-dioxo-2,3-dihydro-1lambda6-thiophen-3-yl)-2-[2-fluoro-4-(1H-pyrrol-1-yl)phenyl]-N-[(pyridin-4-yl)methyl]acetamide], the IC50 fell in the range of 0.5 to 5 µM. Regarding `COc1cc(CN(C(=O)Cc2ccc(C3CC3)cc2)C2C=CS(=O)(=O)C2)ccn1` (stereo not shown) [I-162, 2-(4-cyclopropylphenyl)-N-(1,1-dioxo-2,3-dihydro-1lambda6-thiophen-3-yl)-N-[(2-methoxypyridin-4-yl)methyl]acetamide], the IC50 lay within 0.5 to 5 µM. The figure for `O=C(Cc1ccc(-n2cccc2)cc1)N(Cc1ccc(Br)cc1)C1C=CS(=O)(=O)C1` (stereo not shown) [I-163, N-[(4-bromophenyl)methyl]-N-(1,1-dioxo-2,3-dihydro-1lambda6-thiophen-3-yl)-2-[4-(1H-pyrrol-1-yl)phenyl]acetamide] is 0.5 to 5 µM.

As to `O=C(Cc1ccc(C2CCCCC2)cc1)N(Cc1ccncc1)C1C=CS(=O)(=O)C1` (stereo not shown) [I-164, 2-(4-cyclohexylphenyl)-N-(1,1-dioxo-2,3-dihydro-1lambda6-thiophen-3-yl)-N-[(pyridin-4-yl)methyl]acetamide], the IC50 is 0.5 to 5 µM. To `O=C(Cc1ccc(-n2cccc2)cc1)N(Cc1nc2cnccc2s1)C1C=CS(=O)(=O)C1` (stereo not shown) [I-165, N-(1,1-dioxo-2,3-dihydro-1lambda6-thiophen-3-yl)-2-[4-(1H-pyrrol-1-yl)phenyl]-N-({[1,3]thiazolo[4,5-c]pyridin-2-yl}methyl)acetamide] belongs 0.5 to 5 µM; to `O=C(Cc1ccc(-c2cc(F)cc(F)c2)cc1)N(Cc1ccncc1)C1C=CS(=O)(=O)C1` (stereo not shown) [I-166, 2-{3′,5′-difluoro-[1,1′-biphenyl]-4-yl}-N-(1,1-dioxo-2,3-dihydro-1lambda6-thiophen-3-yl)-N-[(pyridin-4-yl)methyl]acetamide], 0.5 to 5 µM.

`CC(C)OC(C(=O)N(Cc1ccnc(C(C)(C)O)c1)C1C=CS(=O)(=O)C1)c1ccc(-c2ccc(F)c(F)c2)cc1F` (stereo not shown) [I-167, N-(1,1-dioxo-2,3-dihydro-1lambda6-thiophen-3-yl)-N-{[2-(2-hydroxypropan-2-yl)pyridin-4-yl]methyl}-2-(propan-2-yloxy)-2-{3,3′,4′-trifluoro-[1,1′-biphenyl]-4-yl}acetamide]: the IC50 was in the range of 0.5 to 5 µM. The figure for `COc1cc(CN(C(=O)Cc2c(F)cc(-c3ccc(F)cc3)cc2F)C2C=CS(=O)(=O)C2)ccn1` (stereo not shown) [I-168, N-(1,1-dioxo-2,3-dihydro-1lambda6-thiophen-3-yl)-N-[(2-methoxypyridin-4-yl)methyl]-2-{3,4′,5-trifluoro-[1,1′-biphenyl]-4-yl}acetamide] is 0.5 to 5 µM. Turning to `CC(O)c1cc(CN(C(=O)Cc2ccc(-n3cccc3)cc2)C2C=CS(=O)(=O)C2)ccn1` (stereo not shown) [I-169, N-(1,1-dioxo-2,3-dihydro-1lambda6-thiophen-3-yl)-N-{[2-(1-hydroxyethyl)pyridin-4-yl]methyl}-2-[4-(1H-pyrrol-1-yl)phenyl]acetamide], the IC50 lay within 0.5 to 5 µM. To `O=C(Cc1ccc(-n2cccc2)cc1)N(Cc1ccnc2ccccc12)C1C=CS(=O)(=O)C1` (stereo not shown) [I-170, N-(1,1-dioxo-2,3-dihydro-1lambda6-thiophen-3-yl)-2-[4-(1H-pyrrol-1-yl)phenyl]-N-[(quinolin-4-yl)methyl]acetamide] belongs 0.5 to 5 µM; to `COc1cc(CN(C(=O)Cc2ccc(-n3c(C)ccc3C)cc2F)C2C=CS(=O)(=O)C2)ccn1` (stereo not shown) [I-171, 2-[4-(2,5-dimethyl-1H-pyrrol-1-yl)-2-fluorophenyl]-N-(1,1-dioxo-2,3-dihydro-1lambda6-thiophen-3-yl)-N-[(2-methoxypyridin-4-yl)methyl]acetamide], 0.5 to 5 µM; to `COc1cc(CN(C(=O)Cc2ncc(-c3ccc(F)cc3)cc2F)C2C=CS(=O)(=O)C2)ccn1` (stereo not shown) [I-172, N-(1,1-dioxo-2,3-dihydro-1lambda6-thiophen-3-yl)-2-[3-fluoro-5-(4-fluorophenyl)pyridin-2-yl]-N-[(2-methoxypyridin-4-yl)methyl]acetamide], 0.5 to 5 µM. Turning to `Cc1cccn1-c1ccc(CC(=O)N(Cc2ccn(C)c(=O)c2)C2C=CS(=O)(=O)C2)c(F)c1` (stereo not shown) [I-173, N-(1,1-dioxo-2,3-dihydro-1lambda6-thiophen-3-yl)-2-[2-fluoro-4-(2-methyl-1H-pyrrol-1-yl)phenyl]-N-[(1-methyl-2-oxo-1,2-dihydropyridin-4-yl)methyl]acetamide], the IC50 is 0.5 to 5 µM. As to `Cc1cccn1-c1ccc(C(C(=O)N(C)C)C(=O)N(Cc2ccnc(C(C)(C)O)c2)C2C=CS(=O)(=O)C2)c(F)c1` (stereo not shown) [I-174, N-(1,1-dioxo-2,3-dihydro-1lambda6-thiophen-3-yl)-2-[2-fluoro-4-(2-methyl-1H-pyrrol-1-yl)phenyl]-N-{[2-(2-hydroxypropan-2-yl)pyridin-4-yl]methyl}-N′,N′-dimethylpropanediamide], the IC50 was in the range of 0.5 to 5 µM.

On to `COc1cc(CN(C(=O)Cc2ccc(-c3ccc(F)cc3)cn2)C2C=CS(=O)(=O)C2)ccn1` (stereo not shown) [I-175, N-(1,1-dioxo-2,3-dihydro-1lambda6-thiophen-3-yl)-2-[5-(4-fluorophenyl)pyridin-2-yl]-N-[(2-methoxypyridin-4-yl)methyl]acetamide], for which the IC50 was 0.5 to 5 µM. Take `COc1cc(CN(C(=O)C2Cc3cc(-c4ccc(F)cc4)ccc32)C2C=CS(=O)(=O)C2)ccn1` (stereo not shown) [I-176, N-(1,1-dioxo-2,3-dihydro-1lambda6-thiophen-3-yl)-3-(4-fluorophenyl)-N-[(2-methoxypyridin-4-yl)methyl]bicyclo[4.2.0]octa-1,3,5-triene-7-carboxamide]: the IC50 fell in the range of 0.5 to 5 µM. To `O=C(Cc1ccc(C2CCC2)cc1)N(Cc1ccncc1)C1C=CS(=O)(=O)C1` (stereo not shown) [I-177, 2-(4-cyclobutylphenyl)-N-(1,1-dioxo-2,3-dihydro-1lambda6-thiophen-3-yl)-N-[(pyridin-4-yl)methyl]acetamide] belongs 0.5 to 5 µM. With `O=C(Cc1ccc(-n2cccc2)cc1)N(Cc1nc2c(s1)COCC2)C1C=CS(=O)(=O)C1` (stereo not shown) [I-178, N-(1,1-dioxo-2,3-dihydro-1lambda6-thiophen-3-yl)-N-({4H,6H,7H-pyrano[4,3-d][1,3]thiazol-2-yl}methyl)-2-[4-(1H-pyrrol-1-yl)phenyl]acetamide], the IC50 was in the range of 0.5 to 5 µM.

Consider `Cc1cccn1-c1ccc(CC(=O)N(Cc2ccnc3c2CCO3)C2C=CS(=O)(=O)C2)c(F)c1` (stereo not shown) [I-179, N-(1,1-dioxo-2,3-dihydro-1lambda6-thiophen-3-yl)-2-[2-fluoro-4-(2-methyl-1H-pyrrol-1-yl)phenyl]-N-({2H,3H-furo[2,3-b]pyridin-4-yl}methyl)acetamide], for which the IC50 is 0.5 to 5 µM. For `CC(C)(O)c1cc(CN(C(=O)Cc2ccc(-c3ccc(Cl)cc3)cc2F)C2C=CS(=O)(=O)C2)ccn1` (stereo not shown) [I-180, 2-{4′-chloro-3-fluoro-[1,1′-biphenyl]-4-yl}-N-(1,1-dioxo-2,3-dihydro-1lambda6-thiophen-3-yl)-N-{[2-(2-hydroxypropan-2-yl)pyridin-4-yl]methyl}acetamide], the IC50 fell in the range of 0.5 to 5 µM. To `Cc1cccn1-c1ccc(CC(=O)N(Cc2ccncn2)C2C=CS(=O)(=O)C2)c(F)c1` (stereo not shown) [I-181, N-(1,1-dioxo-2,3-dihydro-1lambda6-thiophen-3-yl)-2-[2-fluoro-4-(2-methyl-1H-pyrrol-1-yl)phenyl]-N-[(pyrimidin-4-yl)methyl]acetamide] belongs 0.5 to 5 µM; to `C#CCCCC(=O)N1CCN(C(=O)c2ccc(CN(C(=O)Cc3ccc(-n4cccc4C)cc3F)C3C=CS(=O)(=O)C3)cc2)CC1` (stereo not shown) [I-182, N-(1,1-dioxo-2,3-dihydro-1lambda6-thiophen-3-yl)-2-[2-fluoro-4-(2-methyl-1H-pyrrol-1-yl)phenyl]-N-({4-[4-(hex-5-ynoyl)piperazine-1-carbonyl]phenyl}methyl)acetamide], 0.5 to 5 µM; to `O=C(Cn1cc2ccc(C(F)(F)F)cc2n1)N(Cc1ccncc1)C1C=CS(=O)(=O)C1` (stereo not shown) [I-183, N-(1,1-dioxo-2,3-dihydro-1lambda6-thiophen-3-yl)-N-[(pyridin-4-yl)methyl]-2-[6-(trifluoromethyl)-2H-indazol-2-yl]acetamide], 0.5 to 5 µM. To `NS(=O)(=O)c1ccc(CN(C(=O)Cc2ccc(-n3cccc3)cc2)C2C=CS(=O)(=O)C2)cc1` (stereo not shown) [I-184, N-(1,1-dioxo-2,3-dihydro-1lambda6-thiophen-3-yl)-2-[4-(1H-pyrrol-1-yl)phenyl]-N-[(4-sulfamoylphenyl)methyl]acetamide] belongs 0.5 to 5 µM; to `O=C(O)c1ccc(CN(C(=O)Cc2ccc(-n3cccc3)cc2F)C2C=CS(=O)(=O)C2)cc1` (stereo not shown) [I-185, 4-{[N-(1,1-dioxo-2,3-dihydro-1lambda6-thiophen-3-yl)-2-[2-fluoro-4-(1H-pyrrol-1-yl)phenyl]acetamido]methyl}benzoic acid], 0.5 to 5 µM. To `O=C(Cn1cc(-c2ccccc2)cn1)N(Cc1ccncc1)C1C=CS(=O)(=O)C1` (stereo not shown) [I-186, N-(1,1-dioxo-2,3-dihydro-1lambda6-thiophen-3-yl)-2-(4-phenyl-1H-pyrazol-1-yl)-N-[(pyridin-4-yl)methyl]acetamide] belongs 0.5 to 5 µM. On to `O=C(Cc1ccc(-n2cccc2)cc1)N(Cc1ccnc(C(F)F)c1)C1C=CS(=O)(=O)C1` (stereo not shown) [I-187, N-{[2-(difluoromethyl)pyridin-4-yl]methyl}-N-(1,1-dioxo-2,3-dihydro-1lambda6-thiophen-3-yl)-2-[4-(1H-pyrrol-1-yl)phenyl]acetamide], for which the IC50 is 0.5 to 5 µM.

The record behind these values is patent publication US20260297070A1, “CYCLIC [COMPOUND LEFT OUT] WRN INHIBITORS” (Nimbus Wadjet, Inc., priority 2023, published 2026).
